Test results: US20050107353A1, “Methods of treating lower urinary tract disorders using losigamone” (Dynogen Pharmaceuticals, Inc., priority 2003, published 2005)
Entries after “also recorded” stand apart in the source; their conditions may differ.

Columns and labels:
[1] = test system: activity dependent sodium currents in bladder DRG neurons; assay: Use-dependent effect on sodium currents in bladder DRG neurons, slow versus fast stimulation; type: cell-based, rat; details: 100 μM, steps from −50 to 0 mV, three neurons
Protocol: Labeling of bladder afferent neurons: Adult female Sprague-Dawley rats (150-300 g) were deeply anesthetized with pentobarbital anesthesia and placed on isoflurane maintenance anesthesia. A ventral midline incision was made through the abdominal skin and musculature, exposing the urinary bladder. Five injections of the fluorescent dye Di-I (5 μl each of 25 mg/ml Di-I in DMSO) or Fast Blue (4% w/v) were made into the bladder smooth muscle wall to label primary afferent fibers innervating the bladder. The area was rinsed with sterile saline to eliminate nonspecific spread of dye, and the incision was closed. Rats recovered for 5-12 days to allow for transport of fluorescent dye from distal terminals to the cell somata of dorsal root ganglion (DRG) neurons. Labeled neurons were identified in vitro using fluorescence optics. […]
Sodium currents were recorded from DRG neurons using standard electrophysiologic protocols. […] Currents were recorded using a patch-clamp amplifier and digitized at 3-10 kHz for acquisition. Neuronal input resistance and membrane capacitance were determined from the amplitude and kinetics of the current response to a voltage pulse from a holding potential of −50 mV. […] For all cell types, baseline responses were recorded for a minimum of 10 min to ensure that the kinetics of the response was stable. […]

[2] = molecular target: T1, TTX-R sodium currents in bladder afferent neurons (Rattus norvegicus, UniProt Q62968); assay: Bladder sensory neuron sodium channel current model: whole cell patch-clamp of TTX-R sodium currents; type: cell-based; details: 30 μM bath application, 7 minute, holding potential −70 mV, pulse to +10 mV
T1 construct: Whole cell patch-clamp recordings were obtained from dye-labeled DRG neurons; endogenous in cells; host or cells: primary dissociated L6/S1 dorsal root ganglion neurons of Sprague-Dawley rats, dye-labelled bladder afferents
T1 sequence (Q62968 whole entry): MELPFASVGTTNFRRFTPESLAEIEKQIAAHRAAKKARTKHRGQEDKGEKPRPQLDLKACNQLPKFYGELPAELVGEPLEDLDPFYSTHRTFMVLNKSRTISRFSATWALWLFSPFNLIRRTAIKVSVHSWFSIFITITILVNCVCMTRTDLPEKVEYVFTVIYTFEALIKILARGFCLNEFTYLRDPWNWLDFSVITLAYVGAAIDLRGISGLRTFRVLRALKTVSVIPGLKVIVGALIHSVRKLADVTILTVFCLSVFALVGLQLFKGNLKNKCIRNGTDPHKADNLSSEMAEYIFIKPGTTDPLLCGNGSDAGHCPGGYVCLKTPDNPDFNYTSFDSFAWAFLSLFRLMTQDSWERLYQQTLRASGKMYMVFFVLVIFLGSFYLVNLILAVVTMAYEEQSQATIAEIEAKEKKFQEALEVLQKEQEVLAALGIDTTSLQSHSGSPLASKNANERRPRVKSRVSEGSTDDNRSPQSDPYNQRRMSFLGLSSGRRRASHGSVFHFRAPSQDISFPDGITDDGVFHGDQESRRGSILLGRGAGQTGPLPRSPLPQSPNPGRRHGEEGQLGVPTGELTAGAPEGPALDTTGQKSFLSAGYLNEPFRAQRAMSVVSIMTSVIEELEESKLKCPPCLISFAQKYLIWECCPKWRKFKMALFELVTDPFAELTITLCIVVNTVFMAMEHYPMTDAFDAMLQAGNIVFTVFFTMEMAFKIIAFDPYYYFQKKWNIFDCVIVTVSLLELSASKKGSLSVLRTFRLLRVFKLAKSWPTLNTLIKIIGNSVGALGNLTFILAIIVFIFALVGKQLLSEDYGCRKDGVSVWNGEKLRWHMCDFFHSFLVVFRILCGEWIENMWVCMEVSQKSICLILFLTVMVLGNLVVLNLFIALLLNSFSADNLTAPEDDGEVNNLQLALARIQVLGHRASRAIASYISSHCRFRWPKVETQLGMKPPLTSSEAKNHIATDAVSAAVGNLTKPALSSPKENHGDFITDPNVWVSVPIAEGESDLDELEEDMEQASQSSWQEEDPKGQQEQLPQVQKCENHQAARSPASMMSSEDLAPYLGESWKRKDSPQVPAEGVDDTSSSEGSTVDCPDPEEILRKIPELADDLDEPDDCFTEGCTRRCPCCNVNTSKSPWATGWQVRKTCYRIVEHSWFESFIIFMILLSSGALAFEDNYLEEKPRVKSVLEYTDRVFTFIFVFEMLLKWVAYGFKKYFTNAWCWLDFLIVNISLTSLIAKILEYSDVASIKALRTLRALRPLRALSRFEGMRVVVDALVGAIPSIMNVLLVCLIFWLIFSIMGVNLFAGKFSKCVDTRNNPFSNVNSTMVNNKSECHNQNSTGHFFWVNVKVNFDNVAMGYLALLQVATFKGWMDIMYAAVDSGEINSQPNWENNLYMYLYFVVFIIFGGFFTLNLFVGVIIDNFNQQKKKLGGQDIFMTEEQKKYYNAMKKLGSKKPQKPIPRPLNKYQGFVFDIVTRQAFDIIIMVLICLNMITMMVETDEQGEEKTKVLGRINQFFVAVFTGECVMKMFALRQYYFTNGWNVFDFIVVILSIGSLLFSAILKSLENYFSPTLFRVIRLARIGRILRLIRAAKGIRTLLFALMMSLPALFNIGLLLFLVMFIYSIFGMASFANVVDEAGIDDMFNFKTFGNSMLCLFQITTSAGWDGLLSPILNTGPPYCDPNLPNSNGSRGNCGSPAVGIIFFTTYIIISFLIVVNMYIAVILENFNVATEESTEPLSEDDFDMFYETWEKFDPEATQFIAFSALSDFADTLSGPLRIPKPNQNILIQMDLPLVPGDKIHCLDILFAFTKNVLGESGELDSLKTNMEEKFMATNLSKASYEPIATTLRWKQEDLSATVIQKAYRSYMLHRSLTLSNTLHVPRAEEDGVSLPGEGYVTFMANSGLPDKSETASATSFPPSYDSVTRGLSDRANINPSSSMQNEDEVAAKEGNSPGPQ
Protocol: Labeling of bladder afferent neurons: Adult female Sprague-Dawley rats (150-300 g) were deeply anesthetized with pentobarbital anesthesia and placed on isoflurane maintenance anesthesia. A ventral midline incision was made through the abdominal skin and musculature, exposing the urinary bladder. Five injections of the fluorescent dye Di-I (5 μl each of 25 mg/ml Di-I in DMSO) or Fast Blue (4% w/v) were made into the bladder smooth muscle wall to label primary afferent fibers innervating the bladder. The area was rinsed with sterile saline to eliminate nonspecific spread of dye, and the incision was closed. Rats recovered for 5-12 days to allow for transport of fluorescent dye from distal terminals to the cell somata of dorsal root ganglion (DRG) neurons. Labeled neurons were identified in vitro using fluorescence optics.
Neuronal cultures: Di-I injected rats were euthanized with pentobarbital anesthesia. Lumbar (L6) and sacral (S1) DRG were dissected from the vertebral column and placed in Dulbecco's modified Eagles medium (DMEM) containing 0.3% collagenase B for 60 min at 37° C. The cell solution was exchanged for a 0.25% trypsin in calcium/magnesium-free Dulbecco's phosphate-buffered saline solution, and further digested for 30 min at 37° C. Following a wash in fresh DMEM, ganglia were dissociated by a series of triturations using fire-polished Pasteur pipettes. DRG cells were plated on polylysine-treated glass coverslips. Cells were plated at a density of 0.5 DRG per coverslip in 1 ml DMEM supplemented with 10% FBS, NGF, and 100 U/ml penicillin/streptomycin. All experimental procedures involving rats were conducted under a protocol approved by an Institutional Animal Care and Use Committee. Small variations in the concentrations of reagents, incubation times, etc. may occur and are expected to give similar results.
In most experiments, neurons were incubated in culture medium containing the FITC-labeled lectin BSI-B4 (IB4, […]) at 37° C. for 5 min before recording. The coverslip was washed with extracellular recording solution for 1 min before being placed in a recording chamber mounted on the stage of an inverted microscope equipped with fluorescence optics.
Electrophysiology: Electrophysiologic evaluation of neurons occurred within 4-48 h of plating. Whole cell patch-clamp recordings were obtained from dye-labeled DRG neurons. Recordings were obtained in an extracellular recording solution (pH 7.4, 295-320 mosM) consisting of (in mM) 140 NaCl, 3 KCl, 1 CaCl2, 1 MgCl2, 0.1 CdCl2, 10 HEPES, and 10 glucose. Patch-clamp electrodes were pulled from borosilicate glass and fire polished to 2-6 MOhm tip resistance. The internal pipette recording solution (pH 7.3, 290-300 mosM) consisted of (in mM) 140 CsCl, 10 NaCl, 1 EGTA, and 10 HEPES. Tetrodotoxin (TTX, 0.3 uM) was included in the extracellular solution to block TTX-sensitive sodium currents. Variations in the concentrations and types of reagents used for solutions may occur and are expected to give similar results.
Sodium currents were recorded from DRG neurons using standard electrophysiologic protocols. Neurons were typically voltage-clamped at −50 mV. Currents were recorded using a patch-clamp amplifier and digitized at 3-10 kHz for acquisition. Neuronal input resistance and membrane capacitance were determined from the amplitude and kinetics of the current response to a voltage pulse from a holding potential of −50 mV. Series resistance was compensated 75-95% for all recordings. Leak currents were cancelled online using a standard P/4 protocol. Depolarizing steps from −90, −70, or −50 mV to 0 mV were delivered every 5 or 30 sec during drug application to determine the effects of drugs on sodium currents. For all cell types, baseline responses were recorded for a minimum of 10 min to ensure that the kinetics of the response was stable. A wash out or recovery period usually followed the drug application period. […]

[3] = test system: acetic acid-induced reduction of bladder capacity; assay: Dilute acetic acid model: bladder capacity by filling cystometry during continuous intravesical acetic acid irritation; type: in vivo, rat; details: intraduodenal; for effect on bladder capacity (reversal of acetic acid-induced reduction): increasing doses, rats during continuous irritation
Source text: The objective of the current study was to determine the effect of TTX-R sodium channel modulators or use dependent sodium channel modulators on the ability to reverse the reduction in bladder capacity seen following continuous infusion of dilute acetic acid, a commonly used model of lower urinary tract disorders including overactive bladder.
Animal Preparation: Female rats (250-275 g BW) were anesthetized with urethane (1.2 g/kg) and a saline-filled catheter (PE-50) was inserted into either the jugular vein for intravenous (i.v.; saline vehicle) or the proximal duodenum for intraduodenal (i.d.; distilled water or 10% Tween 80 in saline as vehicle) drug administration. Via a midline lower abdominal incision, a flared-tipped PE 50 catheter was inserted into the bladder dome for bladder filling and pressure recording and secured by ligation. The abdominal cavity was moistened with saline and closed by covering with a thin plastic sheet in order to maintain access to the bladder for emptying purposes. Fine silver or stainless steel wire electrodes were inserted into the external urethral sphincter (EUS) percutaneously for electromyography (EMG).
Experimental Design: Saline was continuously infused at a rate of 0.055 ml/min via the bladder filling catheter for ≧60 minutes to obtain a baseline of lower urinary tract activity (continuous cystometry; CMG). Following the control period, a 0.25% acetic acid solution in saline was infused into the bladder at the same flow rate to induce bladder irritation. Following 30 minutes of AA infusion, 3 vehicle injections were made at 20 minute intervals to determine vehicle effects, if any. Subsequently, increasing doses (2-5) of Na^+ channel blocking compound were administered intravenously or intraduodenaly at half-log order increments at 30 or 60 minute intervals in order to construct a cumulative dose-response relationship. At the end of the control saline cystometry period, the third vehicle, and 20-50 minutes following each subsequent treatment, the infusion pump was stopped, the bladder was emptied by fluid withdrawal via the infusion catheter and a single filling cystometrogram was performed at the same flow rate in order to determine changes in bladder capacity caused by the irritation protocol and subsequent intravenous or intraduodenal drug administration.
Data were analyzed by non-parametric ANOVA for repeated measures (Friedman Test) with Dunn's Multiple Comparison test. All comparisons were made from the last vehicle measurement (AA/Veh 3) or the lowest dose of drug. P<0.050 was considered significant.

| Structure (SMILES) | peak sodium current amplitude, fast (17 Hz) versus slow (0.2 Hz) stimulation [1] | effect on inward TTX-R sodium current [2] | post-test: reversal of bladder capacity reduction ([3]; 100 mg/kg dose, rats) | effect on bladder capacity (reversal of acetic acid-induced reduction) [3] | effect on bladder capacity (reversal of acetic acid-induced reduction) ([3]; listed as topiramate) |
| --- | --- | --- | --- | --- | --- |
| Nc1nnc(-c2cccc(Cl)c2Cl)c(N)n1 [Lamotrigine, 6-(2,3-Dichlorophenyl)-1,2,4-triazine-3,5-diamine] | decreased to a greater extent under fast stimulation conditions |  |  |  |  |
| CC1(C)O[C@@H]2[C@@H](CO[C@@]3(COS(N)(=O)=O)OC(C)(C)O[C@@H]23)O1 [Topiramate, 2,3:4,5-Bis-O-(1-methylethylidene)-1-O-sulfamoyl-beta-D-fructopyranose] |  | blocked the current | statistically significant reversal of bladder capacity reduction | capable of partially reversing the reduction in bladder capacity caused by acetic acid in a dose-dependent fashion; also recorded: dose-dependent and statistically significant reversal | dose-dependent, statistically significant increases in bladder capacity |
